Results published in ChEMBL document CHEMBL1201861, “Genomics of Drug Sensitity in Cancer screening data, Wellcome Trust Sanger Institute”.

Legend:
LB647-SCLC = experiment: cells; type: functional, cell-based, Homo sapiens; conditions: Homo sapiens, LB647-SCLC;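 also: cell growth inhibition, read out by a viability assay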
Description: SANGER: Inhibition of human LB647-SCLC cell growth in a cell viability assay.

IM-9 = experiment: SANGER: Inhibition of human IM-9 cell growth in a cell viability assay.; type: functional, cell-based; conditions: Homo sapiens, IM-9
EB-3 = experiment: cells; type: functional, cell-based, Homo sapiens; conditions: Homo sapiens, EB-3;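 also: human EB-3 cells, growth inhibition read out via a cell viability assay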
Description: SANGER: Inhibition of human EB-3 cell growth in a cell viability assay.

NCI-H2171 = experiment: cells; type: functional, cell-based, Homo sapiens; conditions: Homo sapiens, NCI-H2171;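 also: growth inhibition of human NCI-H2171 cells, read out by a cell viability assay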
Description: SANGER: Inhibition of human NCI-H2171 cell growth in a cell viability assay.

U-698-M = experiment: cells; type: functional, cell-based, Homo sapiens; conditions: Homo sapiens, U-698-M
Description: SANGER: Inhibition of human U-698-M cell growth in a cell viability assay.

YT = experiment: cells; type: functional, cell-based, Homo sapiens; conditions: Homo sapiens, YT
Description: SANGER: Inhibition of human YT cell growth in a cell viability assay.

NCI-H64 = experiment: cells; type: functional, cell-based, Homo sapiens; conditions: Homo sapiens, NCI-H64;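 also: growth inhibition of NCI-H64 cells, read out with a cell viability assay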
Description: SANGER: Inhibition of human NCI-H64 cell growth in a cell viability assay.

TALL-1 = experiment: cells; type: functional, cell-based, Homo sapiens; conditions: Homo sapiens, TALL-1;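 also: growth inhibition of cultured human TALL-1 cells, read out by a cell viability assay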
Description: SANGER: Inhibition of human TALL-1 cell growth in a cell viability assay.

MHH-CALL-2 = experiment: cells; type: functional, cell-based, Homo sapiens; conditions: Homo sapiens, MHH-CALL-2;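 also: growth inhibition of the cell line, read out in a cell viability assay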
Description: SANGER: Inhibition of human MHH-CALL-2 cell growth in a cell viability assay.

NCI-H2081 = experiment: cells; type: functional, cell-based, Homo sapiens; conditions: Homo sapiens, NCI-H2081;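 also: growth inhibition of human NCI-H2081 cells, read out with a cell viability assay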
Description: SANGER: Inhibition of human NCI-H2081 cell growth in a cell viability assay.

CMK = experiment: cells; type: functional, cell-based, Homo sapiens; conditions: Homo sapiens, CMK;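 also: growth inhibition of CMK cells, read out as cell viability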
Description: SANGER: Inhibition of human CMK cell growth in a cell viability assay.

CAL-148 = experiment: cells; type: functional, cell-based, Homo sapiens; conditions: Homo sapiens, CAL-148
Description: SANGER: Inhibition of human CAL-148 cell growth in a cell viability assay.

ST486 = experiment: SANGER: Inhibition of human ST486 cell growth in a cell viability assay.; type: functional, cell-based; conditions: Homo sapiens, ST486
NCI-H2227 = experiment: cells; type: functional, cell-based, Homo sapiens; conditions: Homo sapiens, NCI-H2227;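 also: growth inhibition of the human cell line, read out with a cell viability assay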
Description: SANGER: Inhibition of human NCI-H2227 cell growth in a cell viability assay.

NB14 = experiment: cells; type: functional, cell-based, Homo sapiens; conditions: Homo sapiens, NB14;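 also: growth inhibition of NB14 cells measured with a cell viability assay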
Description: SANGER: Inhibition of human NB14 cell growth in a cell viability assay.

HCC1395 = experiment: cells; type: functional, cell-based, Homo sapiens; conditions: Homo sapiens, HCC1395;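 also: growth inhibition of HCC1395 cells, read out by a cell viability assay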
Description: SANGER: Inhibition of human HCC1395 cell growth in a cell viability assay.

MC-IXC = experiment: cells; type: functional, cell-based, Homo sapiens; conditions: Homo sapiens, MC-IXC;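 also: growth inhibition of MC-IXC cells, read out with a cell viability assay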
Description: SANGER: Inhibition of human MC-IXC cell growth in a cell viability assay.

SCC-4 = experiment: cells; type: functional, cell-based, Homo sapiens; conditions: Homo sapiens, SCC-4;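 also: growth inhibition of human SCC-4 cells, read out as cell viability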
Description: SANGER: Inhibition of human SCC-4 cell growth in a cell viability assay.

ME-180 = experiment: cells; type: functional, cell-based, Homo sapiens; conditions: Homo sapiens, ME-180;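 also: cell viability assay measuring growth inhibition of ME-180 cells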
Description: SANGER: Inhibition of human ME-180 cell growth in a cell viability assay.

RT-112 = experiment: cells; type: functional, cell-based, Homo sapiens; conditions: Homo sapiens, RT-112
Description: SANGER: Inhibition of human RT-112 cell growth in a cell viability assay.

J82 = experiment: cells; type: functional, cell-based, Homo sapiens; conditions: Homo sapiens, J82;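 also: growth inhibition of J82 cells, read out with a cell viability assay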
Description: SANGER: Inhibition of human J82 cell growth in a cell viability assay.

OE19 = experiment: cells; type: functional, cell-based, Homo sapiens; conditions: Homo sapiens, OE19;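 also: growth inhibition of OE19 cells, measured through a cell viability read-out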
Description: SANGER: Inhibition of human OE19 cell growth in a cell viability assay.

MFE-280 = experiment: cells; type: functional, cell-based, Homo sapiens; conditions: Homo sapiens, MFE-280;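 also: growth inhibition of MFE-280 cells, determined with a cell viability readout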
Description: SANGER: Inhibition of human MFE-280 cell growth in a cell viability assay.

KYSE-140 = experiment: cells; type: functional, cell-based, Homo sapiens; conditions: Homo sapiens, KYSE-140;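 also: cell viability assay measuring growth inhibition in human KYSE-140 cells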
Description: SANGER: Inhibition of human KYSE-140 cell growth in a cell viability assay.

SCC-9 = experiment: cells; type: functional, cell-based, Homo sapiens; conditions: Homo sapiens, SCC-9;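 also: Read-out is a cell viability assay, with values giving inhibition of cell growth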
Description: SANGER: Inhibition of human SCC-9 cell growth in a cell viability assay.

Huh-7 = experiment: cells; type: functional, cell-based, Homo sapiens; conditions: Homo sapiens, Huh-7;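 also: HuH-7 cell growth inhibition, read out with a cell viability assay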
Description: SANGER: Inhibition of human HuH-7 cell growth in a cell viability assay.

ABC-1 = experiment: cells; type: functional, cell-based, Homo sapiens; conditions: Homo sapiens, ABC-1;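 also: growth inhibition of human ABC-1 cells, read out by a cell viability assay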
Description: SANGER: Inhibition of human ABC-1 cell growth in a cell viability assay.

NCI-H28 = experiment: cells; type: functional, cell-based, Homo sapiens; conditions: Homo sapiens, NCI-H28;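 also: growth inhibition of human NCI-H28 cells, read out as cell viability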
Description: SANGER: Inhibition of human NCI-H28 cell growth in a cell viability assay.

A673 = experiment: cells; type: functional, cell-based, Homo sapiens; conditions: Homo sapiens, A673;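 also: growth inhibition of human A673 cells, read out through a cell viability assay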
Description: SANGER: Inhibition of human A673 cell growth in a cell viability assay.

TCC-SUP = experiment: cells; type: functional, cell-based, Homo sapiens; conditions: Homo sapiens, TCC-SUP;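 also: growth inhibition of TCC-SUP cells, read out with a cell viability assay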
Description: SANGER: Inhibition of human TCCSUP cell growth in a cell viability assay.

HSC-3 = experiment: cells; type: functional, cell-based, Homo sapiens; conditions: Homo sapiens, HSC-3
Description: SANGER: Inhibition of human HSC-3 cell growth in a cell viability assay.

YKG-1 = experiment: cells; type: functional, cell-based, Homo sapiens; conditions: Homo sapiens, YKG-1;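 also: cell growth inhibition, read out with a viability assay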
Description: SANGER: Inhibition of human YKG-1 cell growth in a cell viability assay.

GCT = experiment: cells; type: functional, cell-based, Homo sapiens; conditions: Homo sapiens, GCT;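 also: GCT cell line proliferation inhibition, read out with a cell viability assay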
Description: SANGER: Inhibition of human GCT cell growth in a cell viability assay.

ASPC1 = experiment: cells; type: functional, cell-based, Homo sapiens; conditions: Homo sapiens, ASPC1;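 also: growth inhibition of AsPC-1 cells, read out with a cell viability assay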
Description: SANGER: Inhibition of human AsPC-1 cell growth in a cell viability assay.

HLE = experiment: cells; type: functional, cell-based, Homo sapiens; conditions: Homo sapiens, HLE;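 also: growth inhibition of human HLE cells, read out by a cell viability assay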
Description: SANGER: Inhibition of human HLE cell growth in a cell viability assay.

MIA PaCa-2 = experiment: cells; type: functional, cell-based, Homo sapiens; conditions: Homo sapiens, MIA PaCa-2;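 also: growth inhibition of MIA PaCa-2 cells, read out with a cell viability assay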
Description: SANGER: Inhibition of human MIA-PaCa-2 cell growth in a cell viability assay.

A2780 = experiment: cells; type: functional, cell-based, Homo sapiens; conditions: Homo sapiens, A2780;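 also: growth inhibition of A2780 cells, read out with a cell viability assay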
Description: SANGER: Inhibition of human A2780 cell growth in a cell viability assay.

786-0 = experiment: cells; type: functional, cell-based, Homo sapiens; conditions: Homo sapiens
Description: SANGER: Inhibition of human 786-0 cell growth in a cell viability assay.

HPAF-II = experiment: cells; type: functional, cell-based, Homo sapiens; conditions: Homo sapiens, HPAF-II;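 also: growth inhibition of HPAF-II cells, read out with a cell viability assay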
Description: SANGER: Inhibition of human HPAF-II cell growth in a cell viability assay.

RPMI-7951 = experiment: cells; type: functional, cell-based, Homo sapiens; conditions: Homo sapiens, RPMI-7951
Description: SANGER: Inhibition of human RPMI-7951 cell growth in a cell viability assay.

NCI-H2087 = experiment: cells; type: functional, cell-based, Homo sapiens; conditions: Homo sapiens, NCI-H2087;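 also: growth inhibition determined with a cell viability readout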
Description: SANGER: Inhibition of human NCI-H2087 cell growth in a cell viability assay.

NCI-H1792 = experiment: cells; type: functional, cell-based, Homo sapiens; conditions: Homo sapiens, NCI-H1792;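 also: growth inhibition of human NCI-H1792 cells, read out as cell viability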
Description: SANGER: Inhibition of human NCI-H1792 cell growth in a cell viability assay.

NCI-H520 = experiment: cells; type: functional, cell-based, Homo sapiens; conditions: Homo sapiens, NCI-H520;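 also: growth inhibition of NCI-H520 cells, measured by a cell viability assay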
Description: SANGER: Inhibition of human NCI-H520 cell growth in a cell viability assay.

ESS-1 = experiment: cells; type: functional, cell-based, Homo sapiens; conditions: Homo sapiens, ESS-1;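 also: growth inhibition of human ESS-1 cells, read out by a cell viability assay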
Description: SANGER: Inhibition of human ESS-1 cell growth in a cell viability assay.

NCI-H650 = experiment: cells; type: functional, cell-based, Homo sapiens; conditions: Homo sapiens, NCI-H650;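 also: growth inhibition of NCI-H650 cells, read out by a viability assay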
Description: SANGER: Inhibition of human NCI-H650 cell growth in a cell viability assay.

G-402 = experiment: cells; type: functional, cell-based, Homo sapiens; conditions: Homo sapiens, G-402
Description: SANGER: Inhibition of human G-402 cell growth in a cell viability assay.

HCT-15 = experiment: cells; type: functional, cell-based, Homo sapiens; conditions: Homo sapiens, HCT-15;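 also: cell viability readout, IC50 reflecting suppression of HCT-15 cell growth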
Description: SANGER: Inhibition of human HCT-15 cell growth in a cell viability assay.

NCI-H2452 = experiment: cells; type: functional, cell-based, Homo sapiens; conditions: Homo sapiens, NCI-H2452;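 also: growth inhibition of NCI-H2452 cells, read out with a cell viability assay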
Description: SANGER: Inhibition of human NCI-H2452 cell growth in a cell viability assay.

COc1cc(N2CCN(C)CC2)ccc1Nc1ncc2c(n1)N(C)c1ccccc1C(=O)N2C
IC50 (LB647-SCLC): > 8000 nM | IC50 (IM-9): > 8000 nM | IC50 (EB-3): > 8000 nM | IC50 (NCI-H2171): > 8000 nM | IC50 (U-698-M): > 8000 nM | IC50 (YT): 3480 nM | IC50 (NCI-H64): > 8000 nM | IC50 (TALL-1): > 8000 nM | IC50 (MHH-CALL-2): > 8000 nM | IC50 (NCI-H2081): > 8000 nM | IC50 (CMK): 3880 nM | IC50 (CAL-148): > 8000 nM | IC50 (ST486): 3490 nM | IC50 (NCI-H2227): > 8000 nM | IC50 (NB14): > 8000 nM

COc1cc(-c2nn([C@H]3CC[C@H](N4CCN(C(C)=O)CC4)CC3)c3ncnc(N)c23)ccc1NC(=O)c1cc2ccccc2n1C
IC50 (LB647-SCLC): 4890 nM | IC50 (IM-9): > 5120 nM | IC50 (EB-3): > 5120 nM | IC50 (NCI-H2171): > 5120 nM | IC50 (U-698-M): > 5120 nM | IC50 (YT): > 5120 nM | IC50 (NCI-H64): > 5120 nM | IC50 (TALL-1): > 5120 nM | IC50 (MHH-CALL-2): > 5120 nM | IC50 (NCI-H2081): > 5120 nM | IC50 (CMK): > 5120 nM | IC50 (CAL-148): > 5120 nM | IC50 (ST486): > 5120 nM | IC50 (NB14): > 5120 nM

OCCCNc1cc(-c2ccnc(Nc3cccc(Cl)c3)n2)ccn1
IC50 (LB647-SCLC): > 256 nM | IC50 (IM-9): > 256 nM | IC50 (EB-3): 64.8 nM | IC50 (NCI-H2171): > 256 nM | IC50 (U-698-M): > 256 nM | IC50 (YT): > 256 nM | IC50 (NCI-H64): 90.3 nM | IC50 (TALL-1): 94.1 nM | IC50 (MHH-CALL-2): 85.5 nM | IC50 (NCI-H2081): > 256 nM | IC50 (CMK): > 256 nM | IC50 (CAL-148): 199 nM | IC50 (ST486): 31.2 nM | IC50 (NB14): > 256 nM

N#Cc1c(O)c2c(-c3ccc(-c4ccccc4O)cc3)csc2[nH]c1=O
IC50 (HCC1395): > 1020 nM | IC50 (MC-IXC): > 1020 nM | IC50 (SCC-4): > 1020 nM | IC50 (LB647-SCLC): 622 nM | IC50 (ME-180): > 1020 nM | IC50 (IM-9): > 1020 nM | IC50 (EB-3): 293 nM | IC50 (NCI-H2171): 622 nM | IC50 (U-698-M): 219 nM | IC50 (RT-112): > 1020 nM | IC50 (YT): 46.7 nM | IC50 (J82): > 1020 nM | IC50 (NCI-H64): > 1020 nM | IC50 (OE19): > 1020 nM | IC50 (MFE-280): > 1020 nM | IC50 (KYSE-140): > 1020 nM | IC50 (SCC-9): > 1020 nM | IC50 (TALL-1): > 1020 nM | IC50 (Huh-7): > 1020 nM | IC50 (ABC-1): > 1020 nM | IC50 (NCI-H28): > 1020 nM | IC50 (A673): > 1020 nM | IC50 (TCC-SUP): > 1020 nM | IC50 (HSC-3): > 1020 nM | IC50 (YKG-1): > 1020 nM | IC50 (MHH-CALL-2): > 1020 nM | IC50 (GCT): > 1020 nM | IC50 (NCI-H2081): > 1020 nM | IC50 (ASPC1): > 1020 nM | IC50 (CMK): 2.2 nM | IC50 (HLE): > 1020 nM | IC50 (MIA PaCa-2): > 1020 nM | IC50 (A2780): > 1020 nM | IC50 (786-0): > 1020 nM | IC50 (HPAF-II): > 1020 nM | IC50 (RPMI-7951): > 1020 nM | IC50 (CAL-148): 223 nM | IC50 (NCI-H2087): 214 nM | IC50 (NCI-H1792): > 1020 nM | IC50 (NCI-H520): > 1020 nM | IC50 (ST486): 135 nM | IC50 (ESS-1): > 1020 nM | IC50 (NCI-H2227): > 1020 nM | IC50 (NCI-H650): > 1020 nM | IC50 (G-402): > 1020 nM | IC50 (HCT-15): > 1020 nM | IC50 (NCI-H2452): > 1020 nM

Cc1ccc(-c2c(C(=O)CCl)n(CCCO)c3ncnc(N)c23)cc1
IC50 (LB647-SCLC): > 4000 nM | IC50 (IM-9): > 4000 nM | IC50 (EB-3): > 4000 nM | IC50 (NCI-H2171): > 4000 nM | IC50 (U-698-M): > 4000 nM | IC50 (YT): > 4000 nM | IC50 (NCI-H64): > 4000 nM | IC50 (TALL-1): > 4000 nM | IC50 (MHH-CALL-2): > 4000 nM | IC50 (NCI-H2081): > 4000 nM | IC50 (CMK): > 4000 nM | IC50 (CAL-148): > 4000 nM | IC50 (ST486): > 4000 nM | IC50 (NB14): > 4000 nM

C#Cc1cccc(Nc2ncnc3cc(OCCOC)c(OCCOC)cc23)c1 [ERLOTINIB]
IC50 (LB647-SCLC): > 2000 nM | IC50 (IM-9): > 2000 nM | IC50 (EB-3): > 2000 nM | IC50 (NCI-H2171): > 2000 nM | IC50 (U-698-M): > 2000 nM | IC50 (YT): > 2000 nM | IC50 (NCI-H64): > 2000 nM | IC50 (MHH-CALL-2): > 2000 nM | IC50 (NCI-H2081): > 2000 nM | IC50 (CMK): > 2000 nM | IC50 (ST486): > 2000 nM | IC50 (NCI-H2227): > 2000 nM | IC50 (NB14): > 2000 nM
